The record followed here is PubChem BioAssay (NCI).

Assay in all cases: DTP human tumour cell line panel, 48 h
The test system of experiment [1] is CAKI-1 renal.
Experiment [2] deals with MCF7 breast.
For experiment [3], the system named is SF-539 CNS.
Experiment [4] relates to SK-MEL-2 melanoma.
Experiment [5] has as its system SK-MEL-28 melanoma.
In experiment [6] the test system is SK-OV-3 ovarian.
Experiment [7] concerns SW-620 colon.
The test system of experiment [8] is UACC-62 melanoma.
The subject of experiment [9] is 786-0 renal.

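Exposure lasted 48 hours, with cells grown in 96-well plates and compounds tested at five concentrations. TGI: concentration producing complete growth inhibition.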

A word on the TGI: it is the concentration giving total growth inhibition. The low end stands for more potent growth arrest, the high end for less potent growth arrest. Regarding `Cc1cc(C)c(C2=NO[C@@H]3[C@H]2C(=O)C=C2N(Cc4ccccc4)CCO[C@@]23O)c(C)c1`, the TGI in experiment [1], in experiment [2], in [3], in experiment [4], in experiment [5] and in experiment [6] was above 100 µM throughout. In addition, the concentration for total growth inhibition (TGI) in experiment [7] and in experiment [8] was above 100 µM each time.
For `CN(C)c1ccc(/C=C2\N=C(c3ccccc3)N(c3nc4ccc(Sc5ccccc5)cc4[nH]3)C2=O)cc1`, the TGI is above 100 µM in experiment [9]; above 100 µM in experiment [1]; above 100 µM in experiment [2]; 60.3 µM in [4]; above 100 µM in experiment [5]; 49.2 µM in experiment [6]. Further, the total growth inhibition concentration (TGI) is above 100 µM in experiment [7] and 82.4 µM in experiment [8].
As to `CCOC(=O)CCC(C(=O)OCC)n1nnc2cc(Nc3c(C)[n+]([O-])c4cc(Cl)ccc4[n+]3[O-])ccc21` (stereo not drawn), the TGI in experiment [9] was above 100 µM; in experiment [1], above 100 µM; in experiment [2], 80 µM; in [3], above 100 µM; in experiment [4] it was above 100 µM; in experiment [6] it was above 100 µM. Also, the TGI in [7] and in [8] was above 100 µM each time.
For the molecule `C[C@]12CC[C@H]3[C@@H](CCC4=C/C(=N/OCCN5CCCCC5)CC[C@@]43C)[C@@H]1CC[C@@H]2O`, the TGI in experiment [9] was above 100 µM; in experiment [1], 55.3 µM; in experiment [2], 26.8 µM; in [4], 29.8 µM; in experiment [5], 28 µM; in experiment [6] it was 30.3 µM. This molecule returned a TGI in experiment [7] of 32.7 µM.
In the case of `COc1cc2c(cc1OCCN1CCN(CCOc3cc4c(cc3OC)C(=O)N3CCC[C@H]3C=N4)CC1)N=C[C@@H]1CCCN1C2=O`, the TGI is above 76.8 µM in [9]; 49.3 µM in [1]; above 100 µM in experiment [2]; above 64.3 µM in experiment [3]; 58.7 µM in experiment [4]; above 100 µM in experiment [5]. The TGI in experiment [6] was above 100 µM; in [7], above 100 µM; in experiment [8], 40 µM.
Consider `COc1cc(/C=C2\C(=O)N(c3ccc(Cl)cc3)C(c3ccccc3)S2(=O)=O)cc(OC)c1OC` (stereo not drawn), for which the concentration for total growth inhibition (TGI) in experiment [9] was above 100 µM; in [1], above 100 µM; in experiment [2], above 63.6 µM; in experiment [3] it was above 100 µM; in experiment [4] it was above 100 µM; in [5] it was above 100 µM. The concentration for total growth inhibition (TGI) in [6] was above 100 µM; in experiment [7] it was above 100 µM; in experiment [8], above 63.6 µM.
As to `Nc1ncnc2c1ncn2C1C(O)C=C(CO)C1O` (stereo not drawn), the total growth inhibition concentration (TGI) in experiment [1], in [2], in experiment [3], in experiment [4], in [6] and in [7] was above 625 µM each time. The molecule also yielded a TGI in experiment [8] above 625 µM.
For the molecule `CCOC(=O)CCC(NC(=O)c1ccc(NCc2ccc3nc(OC)c(OC)nc3c2)c2ccccc12)C(=O)OCC` (stereo not drawn), the total growth inhibition concentration (TGI) in experiment [9] was above 100 µM; in experiment [1], above 100 µM; in [2] it was above 100 µM; in experiment [3], 56.5 µM; in experiment [4], above 100 µM; in [5], above 100 µM. Further, the TGI in experiment [6], in experiment [7] and in experiment [8] was above 100 µM each time.
On to `O=C(c1ccccc1)C1C(c2ccccc2[N+](=O)[O-])N1C1CCCCC1` (stereo not drawn), for which the TGI is 5.05 µM in experiment [9]; 9.5 µM in experiment [1]; 15.9 µM in experiment [2]; 4.77 µM in experiment [3]; 18.6 µM in [4]; above 57.7 µM in experiment [5]. Moreover, the concentration for total growth inhibition (TGI) in experiment [6] is above 60.9 µM; in experiment [7] it was above 26.6 µM; in experiment [8], 20.6 µM.
Take `CC(C)NC(=O)OCCN=C1c2ccccc2C(Br)C(Br)c2ccccc21` (stereo not drawn): the TGI in experiment [9] is 8.34 µM; in [1], 19.7 µM; in experiment [2] it was 28.2 µM; in experiment [3] it was 9.64 µM; in experiment [4], above 54.1 µM; in experiment [5], 35.1 µM. For the same molecule, the TGI in experiment [6] was above 62.9 µM; in [7], above 27.3 µM; in experiment [8] it was 31.1 µM.
Turning to `Cc1cc(Br)c(O)c(-c2cscn2)c1`, the TGI in [9] was 8.39 µM; in experiment [1], 62.6 µM; in experiment [3] it was 37.3 µM; in [4], 35.1 µM; in [6], above 100 µM; in experiment [7], 31.5 µM. The same molecule came in with a TGI in [8] of 28.2 µM.
`COc1cc(C2C3=C(NC(=O)C2C#N)c2ccc4ccccc4c2OCC3)cc(OC)c1OC` (stereo not drawn): the TGI in [9] was above 100 µM; in experiment [1] it was 45.7 µM; in experiment [2] it was above 100 µM; in experiment [3], 42.3 µM; in [4], 59.4 µM; in experiment [5], above 100 µM. For the same molecule, the results for the TGI in [6] and in experiment [7] were 62.4 µM and above 100 µM, respectively.
